Measurements reported in patent publication US11793849B2, “Method of Chinese herbal medicine extract used for treating multiple diseases caused by drug resistant bacteria infection” (priority 2016, dated 2023).
Read-outs that look alike come from different tables or passages of the source.

Tested on: MDRAB
Assay: Checkerboard assay (combined-use MIC, FIC)
Assay type: cell-based, Acinetobacter baumannii
Details: for FIC, all strains / MIC50 of the antibiotic after combined use / MIC90 of the antibiotic after combined use / reduction of the antibiotic's MIC50 vs single use / reduction of the antibiotic's MIC90 vs single use / share of strains with FIC ≤ 0.5: 20 MDRABs; for MIC: Acinetobacter baumannii, read-out: single-use MIC
Protocol: Test methods of the sensibilization effects of the test product to similar antibiotics: it is operated by referring to a checkerboard assay recommended by NCCLS.
The checkerboard assay is performed in a 96-pore sterile culture plate.
Calculation of a Fractional Inhibitory Concentration (FIC): FIC=S20b combined-use MIC/S20b single-use MIC+antibiotic combined-use MIC/antibiotic single-use MIC. By calculating the FIC, the combined antibacterial interaction between the EA and the antibiotic is evaluated, with synergistic effect for FIC≤0.5, additive effect for 0.5<FIC≤1, indifferent effect for 1<FIC≤2 and antagonistic effect for FIC>2. According to a sterile growth pore, the optimum concentration ratio between the EA and the antibiotic is founded out. At last, the effect of the EA to strengthen the efficacy of the antibiotic is evaluated.

[1] = antibiotic with 60% ethanol extract
[2] = antibiotic with 95% ethanol extract
[3] = antibiotic with EA (10% ethanol extract)
[4] = antibiotic with EA (water extract)

## C[C@@H](O)[C@H]1C(=O)N2C(C(=O)O)=C(SCCN=CN)C[C@H]12 [IMP, imipenem]
[1]
  FIC, all strains: ≤ 1
  MIC50 of the antibiotic after combined use: 8 µg/mL
  MIC90 of the antibiotic after combined use: 16 µg/mL
  reduction of the antibiotic's MIC50 vs single use: 75%
  reduction of the antibiotic's MIC90 vs single use: 50%
  share of strains with FIC ≤ 0.5: 70%
[2]
  FIC, all strains: ≤ 1
  MIC50 of the antibiotic after combined use: 8 µg/mL
  MIC90 of the antibiotic after combined use: 16 µg/mL
  reduction of the antibiotic's MIC50 vs single use: 75%
  reduction of the antibiotic's MIC90 vs single use: 50%
  share of strains with FIC ≤ 0.5: 55%
[3]
  FIC, all strains: ≤ 1
  MIC50 of the antibiotic after combined use: 8 µg/mL
  MIC90 of the antibiotic after combined use: 16 µg/mL
  reduction of the antibiotic's MIC50 vs single use: 75%
  reduction of the antibiotic's MIC90 vs single use: 50%
  share of strains with FIC ≤ 0.5: 45%
[4]
  FIC, all strains: ≤ 1
  MIC50 of the antibiotic after combined use: 8 µg/mL
  MIC90 of the antibiotic after combined use: 16 µg/mL
  reduction of the antibiotic's MIC50 vs single use: 75%
  reduction of the antibiotic's MIC90 vs single use: 50%
  share of strains with FIC ≤ 0.5: 35%
Strain A1, EA=60% ethanol extract
  MIC: 1 µg/mL
Strain A1, EA=95% ethanol extract
  MIC: 1 µg/mL
Strain A2, EA=60% ethanol extract
  MIC: 32 µg/mL
Strain A2, EA=95% ethanol extract
  MIC: 32 µg/mL
Strain A3, EA=60% ethanol extract
  MIC: 32 µg/mL
Strain A3, EA=95% ethanol extract
  MIC: 32 µg/mL
Strain A4, EA=60% ethanol extract
  MIC: 8 µg/mL
Strain A4, EA=95% ethanol extract
  MIC: 8 µg/mL
Strain A5 (printed AS in tables A43, A45), EA=95% ethanol extract
  MIC: 32 µg/mL
Strain A5, EA=60% ethanol extract
  MIC: 32 µg/mL
Strain A6, EA=60% ethanol extract
  MIC: 32 µg/mL
Strain A6, EA=95% ethanol extract
  MIC: 32 µg/mL
Strain A7, EA=60% ethanol extract
  MIC: 32 µg/mL
Strain A7, EA=95% ethanol extract
  MIC: 32 µg/mL
Strain A8, EA=60% ethanol extract
  MIC: 32 µg/mL
Strain A8, EA=95% ethanol extract
  MIC: 32 µg/mL
Strain A9, EA=60% ethanol extract
  MIC: 32 µg/mL
Strain A9, EA=95% ethanol extract
  MIC: 32 µg/mL
Strain A10, EA=60% ethanol extract
  MIC: 16 µg/mL
Strain A10, EA=95% ethanol extract
  MIC: 16 µg/mL
Strain A11, EA=60% ethanol extract
  MIC: 32 µg/mL
Strain A11, EA=95% ethanol extract
  MIC: 32 µg/mL
Strain A12, EA=60% ethanol extract
  MIC: 32 µg/mL
Strain A12, EA=95% ethanol extract
  MIC: 32 µg/mL
Strain A13, EA=60% ethanol extract
  MIC: 32 µg/mL
Strain A13, EA=95% ethanol extract
  MIC: 32 µg/mL
Strain A14, EA=60% ethanol extract
  MIC: 32 µg/mL
Strain A14, EA=95% ethanol extract
  MIC: 32 µg/mL
Strain A15, EA=60% ethanol extract
  MIC: 32 µg/mL
Strain A15, EA=95% ethanol extract
  MIC: 32 µg/mL
Strain A16, EA=60% ethanol extract
  MIC: 32 µg/mL
Strain A16, EA=95% ethanol extract
  MIC: 32 µg/mL
Strain A17, EA=60% ethanol extract
  MIC: 16 µg/mL
Strain A17, EA=95% ethanol extract
  MIC: 16 µg/mL
Strain A18, EA=60% ethanol extract
  MIC: 32 µg/mL
Strain A18, EA=95% ethanol extract
  MIC: 32 µg/mL
Strain A19, EA=60% ethanol extract
  MIC: 32 µg/mL
Strain A19, EA=95% ethanol extract
  MIC: 32 µg/mL
Strain A20, EA=60% ethanol extract
  MIC: 32 µg/mL
Strain A20, EA=95% ethanol extract
  MIC: 32 µg/mL
Strain A1, EA (10% ethanol extract) with IMP
  combined-use MIC: 0.5 µg/mL
Strain A1, EA (60% ethanol extract) + IMP combined
  combined-use MIC: 0.5 µg/mL
Strain A1, EA (95% ethanol extract) + IMP combined
  combined-use MIC: 0.5 µg/mL
Strain A1, EA (water extract) with IMP
  combined-use MIC: 0.5 µg/mL
Strain A2, EA (10% ethanol extract) with IMP
  combined-use MIC: 8 µg/mL
Strain A2, EA (60% ethanol extract) + IMP combined
  combined-use MIC: 8 µg/mL
Strain A2, EA (95% ethanol extract) + IMP combined
  combined-use MIC: 8 µg/mL
Strain A2, EA (water extract) with IMP
  combined-use MIC: 16 µg/mL
Strain A3, EA (10% ethanol extract) with IMP
  combined-use MIC: 8 µg/mL
Strain A3, EA (60% ethanol extract) + IMP combined
  combined-use MIC: 8 µg/mL
Strain A3, EA (95% ethanol extract) + IMP combined
  combined-use MIC: 8 µg/mL
Strain A3, EA (water extract) with IMP
  combined-use MIC: 16 µg/mL
Strain A4, EA (10% ethanol extract) with IMP
  combined-use MIC: 8 µg/mL
Strain A4, EA (60% ethanol extract) + IMP combined
  combined-use MIC: 0.5 µg/mL
Strain A4, EA (95% ethanol extract) + IMP combined
  combined-use MIC: 0.5 µg/mL
Strain A4, EA (water extract) with IMP
  combined-use MIC: 1 µg/mL
Strain A5, EA (10% ethanol extract) with IMP
  combined-use MIC: 8 µg/mL
Strain A5, EA (60% ethanol extract) + IMP combined
  combined-use MIC: 8 µg/mL
Strain A5, EA (water extract) with IMP
  combined-use MIC: 16 µg/mL
Strain A6, EA (10% ethanol extract) with IMP
  combined-use MIC: 4 µg/mL
Strain A6, EA (60% ethanol extract) + IMP combined
  combined-use MIC: 16 µg/mL
Strain A6, EA (95% ethanol extract) + IMP combined
  combined-use MIC: 16 µg/mL
Strain A6, EA (water extract) with IMP
  combined-use MIC: 16 µg/mL
Strain A7, EA (10% ethanol extract) with IMP
  combined-use MIC: 8 µg/mL
Strain A7, EA (60% ethanol extract) + IMP combined
  combined-use MIC: 16 µg/mL
Strain A7, EA (95% ethanol extract) + IMP combined
  combined-use MIC: 16 µg/mL
Strain A7, EA (water extract) with IMP
  combined-use MIC: 16 µg/mL
Strain A8, EA (10% ethanol extract) with IMP
  combined-use MIC: 16 µg/mL
Strain A8, EA (60% ethanol extract) + IMP combined
  combined-use MIC: 16 µg/mL
Strain A8, EA (95% ethanol extract) + IMP combined
  combined-use MIC: 16 µg/mL
Strain A8, EA (water extract) with IMP
  combined-use MIC: 16 µg/mL
Strain A9, EA (10% ethanol extract) with IMP
  combined-use MIC: 8 µg/mL
Strain A9, EA (60% ethanol extract) + IMP combined
  combined-use MIC: 4 µg/mL
Strain A9, EA (95% ethanol extract) + IMP combined
  combined-use MIC: 4 µg/mL
Strain A9, EA (water extract) with IMP
  combined-use MIC: 16 µg/mL
Strain A10, EA (10% ethanol extract) with IMP
  combined-use MIC: 8 µg/mL
Strain A10, EA (60% ethanol extract) + IMP combined
  combined-use MIC: 8 µg/mL
Strain A10, EA (95% ethanol extract) + IMP combined
  combined-use MIC: 8 µg/mL
Strain A10, EA (water extract) with IMP
  combined-use MIC: 8 µg/mL
Strain A11, EA (10% ethanol extract) with IMP
  combined-use MIC: 8 µg/mL
Strain A11, EA (60% ethanol extract) + IMP combined
  combined-use MIC: 4 µg/mL
Strain A11, EA (95% ethanol extract) + IMP combined
  combined-use MIC: 4 µg/mL
Strain A11, EA (water extract) with IMP
  combined-use MIC: 8 µg/mL
Strain A12, EA (10% ethanol extract) with IMP
  combined-use MIC: 8 µg/mL
Strain A12, EA (60% ethanol extract) + IMP combined
  combined-use MIC: 8 µg/mL
Strain A12, EA (95% ethanol extract) + IMP combined
  combined-use MIC: 8 µg/mL
Strain A12, EA (water extract) with IMP
  combined-use MIC: 16 µg/mL
Strain A13, EA (10% ethanol extract) with IMP
  combined-use MIC: 8 µg/mL
Strain A13, EA (60% ethanol extract) + IMP combined
  combined-use MIC: 8 µg/mL
Strain A13, EA (95% ethanol extract) + IMP combined
  combined-use MIC: 8 µg/mL
Strain A13, EA (water extract) with IMP
  combined-use MIC: 16 µg/mL
Strain A14, EA (10% ethanol extract) with IMP
  combined-use MIC: 16 µg/mL
Strain A14, EA (60% ethanol extract) + IMP combined
  combined-use MIC: 4 µg/mL
Strain A14, EA (95% ethanol extract) + IMP combined
  combined-use MIC: 8 µg/mL
Strain A14, EA (water extract) with IMP
  combined-use MIC: 4 µg/mL
Strain A15, EA (10% ethanol extract) with IMP
  combined-use MIC: 8 µg/mL
Strain A15, EA (60% ethanol extract) + IMP combined
  combined-use MIC: 4 µg/mL
Strain A15, EA (95% ethanol extract) + IMP combined
  combined-use MIC: 8 µg/mL
Strain A15, EA (water extract) with IMP
  combined-use MIC: 4 µg/mL
Strain A16, EA (10% ethanol extract) with IMP
  combined-use MIC: 8 µg/mL
Strain A16, EA (60% ethanol extract) + IMP combined
  combined-use MIC: 8 µg/mL
Strain A16, EA (95% ethanol extract) + IMP combined
  combined-use MIC: 8 µg/mL
Strain A16, EA (water extract) with IMP
  combined-use MIC: 8 µg/mL
Strain A17, EA (10% ethanol extract) with IMP
  combined-use MIC: 4 µg/mL
Strain A17, EA (60% ethanol extract) + IMP combined
  combined-use MIC: 2 µg/mL
Strain A17, EA (95% ethanol extract) + IMP combined
  combined-use MIC: 2 µg/mL
Strain A17, EA (water extract) with IMP
  combined-use MIC: 2 µg/mL
Strain A18, EA (10% ethanol extract) with IMP
  combined-use MIC: 16 µg/mL
Strain A18, EA (60% ethanol extract) + IMP combined
  combined-use MIC: 8 µg/mL
Strain A18, EA (95% ethanol extract) + IMP combined
  combined-use MIC: 8 µg/mL
Strain A18, EA (water extract) with IMP
  combined-use MIC: 8 µg/mL
Strain A19, EA (10% ethanol extract) with IMP
  combined-use MIC: 8 µg/mL
Strain A19, EA (60% ethanol extract) + IMP combined
  combined-use MIC: 8 µg/mL
Strain A19, EA (95% ethanol extract) + IMP combined
  combined-use MIC: 8 µg/mL
Strain A19, EA (water extract) with IMP
  combined-use MIC: 8 µg/mL
Strain A20, EA (10% ethanol extract) with IMP
  combined-use MIC: 8 µg/mL
Strain A20, EA (60% ethanol extract) + IMP combined
  combined-use MIC: 8 µg/mL
Strain A20, EA (95% ethanol extract) + IMP combined
  combined-use MIC: 8 µg/mL
Strain A20, EA (water extract) with IMP
  combined-use MIC: 8 µg/mL
Strain AS, EA (95% ethanol extract) + IMP combined
  combined-use MIC: 8 µg/mL
